The target of this assay is T1, hM3 muscarinic receptor subtype (Homo sapiens, UniProt P20309).
T1 construct: expressed in transfected cells; crude membranes prepared in house
Nature of the assay: Radioligand binding assay ([3H]-NMS displacement). The conditions noted are these: [3H]-NMS 1 nM, CHO cell membranes, 60 minutes at 37° C.; read-out: Ki value for the M3 muscarinic receptor subtype. The protocol:
A. Membrane Preparation from Cells Expressing hM1, hM2, hM3 and hM4 Muscarinic Receptor Subtypes
CHO cell lines stably expressing cloned human hM1, hM2, hM3 and hM4 muscarinic receptor subtypes, respectively, were grown to near confluency in medium consisting of HAM's F-12 supplemented with 10% FBS and 250 μg/mL Geneticin. The cells were grown in a 5% CO2, 37° C. incubator and lifted with 2 mM EDTA in dPBS. Cells were collected by 5 minute centrifugation at 650×g, and cell pellets were either stored frozen at −80° C. or membranes were prepared immediately. For membrane preparation, cell pellets were resuspended in lysis buffer and homogenized with a Polytron PT-2100 tissue disrupter (Kinematica AG; 20 seconds×2 bursts). […] The protein concentration of the membrane suspension was determined by the method described in Lowry, O. et al., […] 193:265 (1951). […]
Radioligand binding assays were performed in 96-well microtiter plates in a total assay volume of 100 μL. […] Filter plates were rinsed three times with wash buffer (10 mM HEPES) to remove unbound radioactivity. […] The plates were then counted in a PerkinElmer Topcount liquid scintillation counter (PerkinElmer Inc., Wellesley, Mass.). Binding data were analyzed by nonlinear regression analysis with the GraphPad Prism Software package (GraphPad Software, Inc., San Diego, Calif.) using the one-site competition model. […]

T1 sequence (P20309 whole entry): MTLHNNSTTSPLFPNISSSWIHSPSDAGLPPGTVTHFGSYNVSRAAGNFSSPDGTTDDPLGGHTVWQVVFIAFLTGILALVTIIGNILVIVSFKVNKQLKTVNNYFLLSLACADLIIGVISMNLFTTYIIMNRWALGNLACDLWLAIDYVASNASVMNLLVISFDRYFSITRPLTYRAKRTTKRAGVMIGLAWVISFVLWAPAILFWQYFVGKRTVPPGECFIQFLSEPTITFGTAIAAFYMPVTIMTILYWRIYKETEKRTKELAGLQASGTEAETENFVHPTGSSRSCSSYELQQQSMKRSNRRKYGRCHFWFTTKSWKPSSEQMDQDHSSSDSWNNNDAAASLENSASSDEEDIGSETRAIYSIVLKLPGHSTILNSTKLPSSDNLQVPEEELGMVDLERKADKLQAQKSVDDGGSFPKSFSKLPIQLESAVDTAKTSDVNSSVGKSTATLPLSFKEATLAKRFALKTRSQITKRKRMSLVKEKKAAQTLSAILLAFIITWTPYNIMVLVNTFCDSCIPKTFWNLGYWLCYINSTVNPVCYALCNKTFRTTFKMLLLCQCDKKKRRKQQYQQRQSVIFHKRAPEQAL

Usually Ki stands for a dissociation constant, usually derived from enzyme kinetics or from competition with a known ligand. In the case of `NC(=O)C1CCN(Cc2ccc(NC(=O)CCN3CCC(OC(=O)Nc4ccccc4-c4ccccc4)CC3)cc2)CC1` [Example 1, Biphenyl-2-ylcarbamic Acid 1-{2-[4-(4-Carbamoylpiperidin-1-ylmethyl)phenylcarbamoyl]ethyl}piperidin-4-yl Ester], the Ki was less than 5 nM.
